In PMC4976923, “Potent Allosteric Dengue Virus NS5 Polymerase Inhibitors: Mechanism of Action and Resistance Profiling” (PLoS Pathogens, 2016):
Like-named read-outs stand apart in the source and are kept apart here.

Legend:
[1] = in vitro; assay type: cell-based; settings: human, HuH-7 (DENV2 replicon cells); 48 hr; ATP levels
Description: A549, BHK-21 and Huh7 cells bearing stable DENV2 sub-genomic replicon or transiently electroporated DENV2-NGC replicon or infectious virus cDNAs were seeded into 384-well microplate (3,000 cells per well). After over-night incubation at 37°C with 5% CO2, the cells were treated with 2-fold serially diluted compounds, starting from 20 or 50 μM. At 48 hr of post-incubation, renilla luciferase activities were measured with the ViviRen live-cell substrate (Promega, USA) according to the manufacturer’s protocol. CellTiter-Glo reagent (Promega, USA) was then added to determine cytotoxic effects of compounds. For the HCV replicon assay, Huh-7.5 cells harboring the HCV replicon were seeded into a 96-well microplate (20,000 cells per well). At 48 hr after compound treatment, cells were assayed for firefly luciferase activity by using a Bright-Glo luciferase assay (Promega, USA). NITD-008, a nucleoside inhibitor of DENV and HCV was added as a control.

[2] = test system: DENV2-NGC Ren-LUC Replicon in HuH-7; assay: Stable HuH-7 DENV2-NGC renilla luciferase replicon assay; assay type: cell-based; settings: Dengue virus, DENV2, Huh-7, 48 h, read-out: HuH-7 DENV Replicon, DENV2, EC50
[3] = test system: DENV4 FL NS5; assay: Thermo-denaturation assay, recombinant FL NS5; assay type: binding; settings: +50 μM compound; DMSO control 42.5
Description: (§1) Site-directed alanine mutations of DENV4 FL NS5 cDNA were performed using pET28-D4-MY01-22713 NS5FL [23] as a template, according to the manufacturer’s protocol (Stratagene, USA). Protein expressions of DENV1-4 FL NS5 and their stability analyses by thermo-fluorescence were performed as described previously. DENV de novo initiation and elongation FAPA assays were earlier described. […]
(§2) 6 Fi g .5. Ef fects of N -pocket compounds on DENV pol ymerase thermo-stability. Melting
(§3) 7 temperatur e (Tm) w as ass essed b y thermo-d enatur ation in presence of the S YPRO Oran ge
(§4) 8 dye as described in Materials and Methods. (A-F) Representative meltin g curves of DEN V4
(§5) 10 inhibitors or 5 % DMSO control. […]
(§6) 16 controls treated with DMSO.

[4] = target: T1, DENV2 FL NS5 (Dengue virus type 2, UniProt P14340); assay: DENV2 FL NS5 de novo initiation FAPA assay; assay type: biochemical; settings: one experiment; read-out: DENV FL NS5 de novo initiation FAPA, IC50, DENV2
T1 construct: made in house
Description: (§7) DENV1-4 FL NS5 dnI assays were performed as described previously. Briefly, compounds from 0–20 or -100 μM concentrations are two-fold serially diluted into 384-well black opaque plates (Corning Costar), after which 100 nM DENV FL NS5 protein was added and the plates incubated at RT for 20 min. RNA and ATTO-CTP, ATP, GTP and UTP were then added and the plates incubated for another 120 min. […] For order-of-addition experiments, DENV4 FL NS5 was incubated for one hour at RT with RNA, ATP, and GTP or RNA, ATP, GTP and ATTO-CTP, followed by exposure to serially diluted compounds for 20 min at RT. The missing components (ATTO-CTP and UTP or UTP alone) were added and the reactions continued for 120 min after which STOP buffer was added as before. All datapoints were performed in duplicate wells. Each compound was tested at least twice.
(§8) 2 Co mpound testing with DENV dn I FAPA assays. Final dn I assa y reaction mixtures
(§9) 3 contained 100 nM DENV 5 ´UTR-L-3´UTR IVT RNA, 20 µ M ATP, 20 µM GTP, 20 µM
(§10) 4 UTP, 5 µM ATTO -CTP, and 100 nM of DENV FL NS5 protein in 15 µl in assa y buffer
(§11) 5 comprising 50 mM Tris/ HCl, pH 7.5, 10 mM KCl, 1 mM MgCl2, 0.3 mM MnCl2 (DENV2
(§12) 6 and 4) or 1 mM MnCl 2 (DENV1 and 3), 0.001% Triton- X-100 and 10 µ M cystein e [ 1] . To
(§13) 7 perform dose-respons e inhibition measurements, compounds from 0- 20 or - 100 µM
(§14) 8 concentr ations are two -fold seriall y diluted into 384-well black opaqu e plat es (Corning
(§15) 9 Costar), after which 100 nM DENV FL NS5 protein was added into resp ect ive wells. The
(§16) 10 plates wer e sealed, b riefl y shak en and centrif uged at 1500 rpm for 30 sec and incubated at RT
(§17) 11 for 15 min. Thereafter,RNA and ATTO -CTP, ATP, GTP and UTP were added to the wells to
(§18) 12 start the reactions. The pl ates wer e re-seal ed, shaken and centrifuged as before, followed b y
(§19) 13 incubation RT for 120 min.
(§20) 15 intestinal phosphatase (CIP), re- incubation at RT for 60 min and read on a Tecan Safire II
(§21) 16 microplate reader. For o r der-of-addition experiments, DENV4 FL NS5 was incubated for one
(§22) 17 hour at RT with RNA, ATP, and GTP or RNA, ATP, GTP and ATTO-CTP, followed by
(§23) 18 exposure to seriall y dilut ed compounds for 20 mi n at RT. The missing components (ATTO-
(§24) 19 CTP and UTP or UTP alone) were added and the reactions continued for 120 min after which
(§25) 20 STOP buffer was added as before. All datapoints were performed in duplicate wells. Each
(§26) 21 compound was tested at l east twice.
(§27) 23 Compound testing in DENV1-4 infected cells by high content imaging. Approximatel y 7
(§28) 24 × 10^3 A549 cells per well were s eeded into 384-well plates in Ham’s F-12K medium

[5] = target: T2, DENV4 FL NS5 (Dengue virus type 4, UniProt P09866); assay type: biochemical; settings: for mode of inhibition with respect to viral RNA substrate / mode of inhibition with respect to GTP: Lineweaver-Burk plots; for mode of inhibition with respect to viral RNA substrate: 0–500 nM RNA; for mode of inhibition with respect to GTP: 0–50 μM GTP
T2 construct: 100 nM DENV FL NS5 protein was added; made in house

[6] = target: T3, DENV1 FL NS5 (Dengue virus type 1, UniProt P17763); assay: DENV1 FL NS5 de novo initiation FAPA assay; assay type: biochemical; settings: one experiment; read-out: DENV FL NS5 de novo initiation FAPA, IC50, DENV1
T3 construct: 100 nM DENV FL NS5 protein was added; made in house
Description: (§29) DENV1-4 FL NS5 dnI assays were performed as described previously. Briefly, compounds from 0–20 or -100 μM concentrations are two-fold serially diluted into 384-well black opaque plates (Corning Costar), after which 100 nM DENV FL NS5 protein was added and the plates incubated at RT for 20 min. RNA and ATTO-CTP, ATP, GTP and UTP were then added and the plates incubated for another 120 min. Reactions were stopped with buffer containing 25 nM CIP, re- incubated at RT for 60 min and read on a Tecan Safire II microplate reader. For order-of-addition experiments, DENV4 FL NS5 was incubated for one hour at RT with RNA, ATP, and GTP or RNA, ATP, GTP and ATTO-CTP, followed by exposure to serially diluted compounds for 20 min at RT. The missing components (ATTO-CTP and UTP or UTP alone) were added and the reactions continued for 120 min after which STOP buffer was added as before. All datapoints were performed in duplicate wells. Each compound was tested at least twice.
as §8, §9, §10, §11, §12, §13, §14, §15, §16, §17, §18
(§30) 13 incubation RT for 120 min. Reactions were stopped by addition of 10 µl of 2.5X STOP
(§31) 14 buffer (200 mM NaCl, 25 mM MgCl2, 1.5M DEA, pH 10; Promega) with 25 nM calf
as §20, §21, §22, §23, §24, §25, §26, §27, §28

[7] = target: T4, DENV3 FL NS5 (Dengue virus type 3, UniProt Q6YMS4); assay: DENV3 FL NS5 de novo initiation FAPA assay; assay type: biochemical; settings: one experiment; read-out: DENV FL NS5 de novo initiation FAPA, IC50, DENV3
T4 construct: 100 nM DENV FL NS5 protein was added; made in house
Description: as §29, §8, §9, §10, §11, §12, §13, §14, §15, §16, §17, §18, §30, §31, §20, §21, §22, §23, §24, §25, §26, §27, §28

[8] = target: DENV4 RdRp domain (aa 268–900) (Dengue virus type 4, UniProt P09866); assay: Thermo-denaturation assay, recombinant RdRp domain; assay type: binding; settings: +50 μM compound; DMSO control 50
Description: as §1, §2, §3, §4, §5, §6

[9] = target: T2, DENV4 FL NS5; assay: biochemical
Description: as §7, §8, §9, §10, §11, §12, §13, §14, §15, §16, §17, §18, §19, §20, §21, §22, §23, §24, §25
21 compound was tested at l east twice. […]

[10] = target: T2, DENV4 FL NS5; settings: Enzyme + compound 20 min, then ssRNA and nucleotides, 2 hr; read-out: DENV FL NS5 de novo initiation FAPA, IC50, DENV4; cited from earlier work
[11] = target: T5, DENV4 FL NS5 S797A (Dengue virus type 4, UniProt P09866, S3284A); assay type: biochemical; settings: dnI FAPA; one experiment
T5 construct: Site-directed alanine mutations of DENV4 FL NS5 cDNA; made in house

[12] = target: T6, DENV4 FL NS5 W803A (Dengue virus type 4, UniProt P09866, W3291A); assay type: biochemical; settings: dnI FAPA; one experiment
T6 construct: Site-directed alanine mutations of DENV4 FL NS5 cDNA; made in house

[13] = target: T2, DENV4 FL NS5; assay: biochemical; settings: Enzyme + compound; averaged from >3 experiments; read-out: Elongation IC50
[14] = representative dose-response curve, read-out: IC50, best-fit value of representative curve (Fig 1A in S1 Text)
[15] = Enzyme + compound 20 min, then ssRNA and nucleotides, 2 hr, averaged from ≥3 experiments, read-out: DENV FL NS5 de novo initiation FAPA, IC50, DENV4

| Structure (SMILES) | CC50 [1] [nM] | EC50 [2] [nM] | Protein melting temperature Tm with compound, FL NS5 [3] [°C] | IC50 [4] [nM] | mode of inhibition with respect to viral RNA substrate [5] | mode of inhibition with respect to GTP [5] | mode of inhibition at high GTP concentrations ([5]; high GTP concentrations) | IC50 [6] [nM] | IC50 [7] [nM] | Protein melting temperature Tm with compound, RdRp domain [8] [°C] | IC50 [9, 14] [nM] | IC50 [10] [nM] | IC50 [9, 15] [nM] | S797A IC50 [11] | IC50 ([9]; compound added to enzyme-dsRNA complex, read-out: de novo IC50, order of addition: [Enzyme + RNA+ ATP+GTP+ATTO-CTP] + compound) [nM] | IC50 ([9]; compound added to enzyme-dsRNA complex, read-out: de novo IC50, order of addition: [Enzyme + RNA+ATP+GTP] + compound) [nM] | IC50 ([9]; compound added to pre-formed enzyme-ssRNA complex, read-out: de novo IC50, order of addition: [Enzyme + RNA] + compound) [nM] | W803A IC50 [12] | IC50 [13] [nM] |
| --- | --- | --- | --- | --- | --- | --- | --- | --- | --- | --- | --- | --- | --- | --- | --- | --- | --- | --- | --- |
| O=C(O)Cc1cc(CC(=O)O)cc(-c2ccc(C#CCO)s2)c1 [Compound 15] | > 100000 | > 100000 | 52 | 2200 | uncompetitive | uncompetitive inhibition | non-competitive mode of inhibition | 300 | 460 | 65 |  |  |  |  |  |  |  |  |  |
| COc1ccc(CC(=O)O)cc1-c1ccccc1 [Compound 3] | > 100000 | > 100000 |  | 769000 |  |  |  | 769000 | 796000 |  | 788000 | 733000 ± 10600 |  |  |  |  |  |  |  |
| O=C(O)Cc1cc(CC(=O)O)cc(-c2ccc(Cl)s2)c1 [Compound 11] | > 100000 | > 100000 |  | 39700 |  |  |  | 7100 | 10700 |  |  |  |  |  |  |  |  |  |  |
| COc1ccc(CC(=O)O)cc1-c1ccc(Cl)s1 [Compound 3i] | > 100000 | > 100000 |  | 37200 |  |  |  | 46600 | 66800 |  | 30900 |  | 30700 ± 9400 |  |  |  |  |  |  |
| Nc1nc2c(ncn2[C@@H]2O[C@H](COP(=O)(O)OP(=O)(O)OP(=O)(O)O)C[C@H]2O)c(=O)[nH]1 [3'dGTP, reference compound] | > 100000 | > 100000 |  | 620 | non-competitive | competitive |  | 520 | 270 |  | 513 |  | 790 ± 200 | retained the same IC50 | 710 ± 200 | 740 ± 260 | 440 ± 20 | retained the same IC50 | 430 ± 290 |
| COc1cc(C)c(C(=O)NS(=O)(=O)c2ccccc2)cc1-c1ccc(C#CCO)s1 [Compound 25] | > 100000 | 11400 |  | 106 |  |  |  | 33 | 40 |  | 281 | 165 ± 108 |  |  |  |  |  |  |  |
| COc1cc(OC)c(-c2ccc(C#CCO)s2)cc1C(=O)NS(=O)(=O)c1ccccc1 [Compound 26] | > 100000 | 21000 |  | 145 |  |  |  | 75 | 57 |  | 115 | 251 ± 129 |  |  |  |  |  |  |  |
